Laboratory results reported in paper PMC6321145 (Molecules, 2018).

System: SH-SY5Y human neuroblastoma cells
Assay: Protective effect against Aβ1–42-induced toxicity in SH-SY5Y cells (MTT)
Assay type: cell-based
Method: The cytoprotective effect of compound 6b1 against Aβ1–42 damage in SH-SY5Y human neuroblastoma cell lines was determined by MTT assay. […] To investigate the protective effect of compound 6b1 on Aβ1–42 induced cell toxicity, SH-SY5Y cells exposed to Aβ1–42 (20 μM) were incubated with different concentrations of compound 6b1 (5, 10, and 20 μM) for 24 h, and the cell viability was tested.
SH-SY5Y cells were seeded in 96-well plates (1 × 10^4 cells per well) and exposed to Aβ1–42 (20 μM) in the presence of compound 6b1 at the increasing doses (0, 5, 10 and 20 μM). After 24 h and 48 h, cell viability was measured by the MTT assay.

Q: What does the source list for `CCN(CC)c1ccc(/C=C/c2cc(NCCCN(C)C)c3ccccc3n2)cc1` [Compound 6b1, (E)-N^1-(2-(4-(Diethylamino)styryl)quinolin-4-yl)-N^3,N^3-dimethylpropane-1,3-diamine]?
A: Cell viability against Aβ1–42-induced cytotoxicity (Aβ1–42 20 μM, compound 5, 10, 20 μM, 24 h): increased the cell viability; viability at 20 µM (Homo sapiens, SH-SY5Y, 48 h, read-out: Cell viability after co-incubation with Aβ1–42): 89.8%
